From patent US20250213701A1, “MEDICAMENT FOR TREATING HUMAN TUMOR BASED ON ERF3A-TARGETING PROTEOLYSIS MECHANISM” (SUZHOU DEGEN BIO-MEDICAL CO., LTD., priority 2022, published 2025)
pIC50: −log10 of the molar value.

Legend:
Assay type in all cases: cell-based, human
VCaP cells = test: Anti-proliferative toxicity against prostate cancer cell line Vcap (CCK8); details: 3 days; for pIC50: Homo sapiens, 72 h, CCK8
Procedure, shortened: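 VCaP cells (DMEM, 10% FBS) seeded 20000 cells/well, cultured 72 h, then exposed in triplicate to compound at final well concentrations of 0.00001–0.16 μM for 3 days at 37 °C, 5% CO2. Viability by CCK8, 1–4 h at 37 °C, absorbance at 450 nm.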

22Rv1 cells = test: Anti-proliferative toxicity against prostate cancer cell line 22Rv1 (CCK8); details: 3 days; for pIC50: Homo sapiens, 72 h, CCK8
Procedure, shortened: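 22Rv1 cells pre-cultured for 48 h, then exposed to compounds at 0.00001-1.0 μM final, in triplicate, for 3 days. Viability read by CCK8 absorbance at 450 nm after 1-4 h at 37 °C.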

PC-3 cells = test: Anti-proliferative toxicity against prostate cancer cell line PC-3 (CCK8); details: Homo sapiens, 72 h, 3 days
Procedure, shortened: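 PC-3 cells (4000/well, pre-cultured 24 h) exposed in triplicate to compound at final 0.00001-1.0 μM for 3 days at 37 °C, 5% CO2. Viability read by CCK8, 1-4 h at 37 °C, absorbance at 450 nm.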

## C[C@]12C=CC(=O)N[C@@H]1CC[C@@H]1[C@@H]2CC[C@]2(C)[C@@H](C(=O)Nc3cccc(N[C@@H]4CCC[C@@H](Nc5cccc6c5C(=O)N(C5CCC(=O)NC5=O)C6=O)C4)c3)CC[C@@H]12 (stereo partly drawn) [C59, N-(3-(N—(N-(4-(2-(3-(2,6-dioxopiperidine))-isoindole-1,3-dione))-1R,3R-cyclohexanediamine))phenyl)-3-oxo-4-aza-5α-androst-1-ene-17β-carboxamide]
VCaP cells; 0.00001 μM
  Anti-proliferative toxicity data in VCaP cells: 0.6%
VCaP cells; 0.00005 μM
  Anti-proliferative toxicity data in VCaP cells: 62.5%
VCaP cells; 0.00010 μM
  Anti-proliferative toxicity data in VCaP cells: 78.6%
VCaP cells; 0.00030 μM
  Anti-proliferative toxicity data in VCaP cells: 88.3%
VCaP cells; 0.00100 μM
  Anti-proliferative toxicity data in VCaP cells: 92.7%
VCaP cells; 0.00300 μM
  Anti-proliferative toxicity data in VCaP cells: 93.5%
VCaP cells; 0.00600 μM
  Anti-proliferative toxicity data in VCaP cells: 94.1%
VCaP cells; 0.03200 μM
  Anti-proliferative toxicity data in VCaP cells: 94.6%
VCaP cells; 0.16000 μM
  Anti-proliferative toxicity data in VCaP cells: 94.6%
VCaP cells
  pIC50: ≥ 10.00
22Rv1 cells; 0.00001 μM
  Anti-proliferative toxicity data in 22Rv1 cells: 8.3%
22Rv1 cells; 0.00006 μM
  Anti-proliferative toxicity data in 22Rv1 cells: 41.3%
22Rv1 cells; 0.00032 μM
  Anti-proliferative toxicity data in 22Rv1 cells: 79.6%
22Rv1 cells; 0.00160 μM
  Anti-proliferative toxicity data in 22Rv1 cells: 80.7%
22Rv1 cells; 0.00800 μM
  Anti-proliferative toxicity data in 22Rv1 cells: 81.1%
22Rv1 cells; 0.04000 μM
  Anti-proliferative toxicity data in 22Rv1 cells: 81.1%
22Rv1 cells; 0.20000 μM
  Anti-proliferative toxicity data in 22Rv1 cells: 81.9%
22Rv1 cells; 1.00000 μM
  Anti-proliferative toxicity data in 22Rv1 cells: 82.3%
22Rv1 cells
  pIC50: 8.00 to 10.00
PC-3 cells
  pIC50: 8.00 to 10.00

## C[C@]12C=CC(=O)N[C@@H]1CC[C@@H]1[C@@H]2CC[C@]2(C)[C@@H](C(=O)Nc3cccc(N[C@@H]4CCC[C@@H](Nc5cccc6c5C(=O)N([C@H]5CCC(=O)NC5=O)C6=O)C4)c3)CC[C@@H]12 [C63, N-(3-(N—(N-(4-(2-(3S-(2,6-dioxopiperidine))-isoindole-1,3-dione))-1R,3R-cyclohexanediamine))phenyl)-3-oxo-4-aza-5α-androst-1-ene-17β-carboxamide]
VCaP cells; 0.00001 μM
  Anti-proliferative toxicity data in VCaP cells: 25.2%
VCaP cells; 0.00005 μM
  Anti-proliferative toxicity data in VCaP cells: 75.7%
VCaP cells; 0.00010 μM
  Anti-proliferative toxicity data in VCaP cells: 80.2%
VCaP cells; 0.00030 μM
  Anti-proliferative toxicity data in VCaP cells: 89.2%
VCaP cells; 0.00100 μM
  Anti-proliferative toxicity data in VCaP cells: 93.1%
VCaP cells; 0.00300 μM
  Anti-proliferative toxicity data in VCaP cells: 94.0%
VCaP cells; 0.00600 μM
  Anti-proliferative toxicity data in VCaP cells: 94.3%
VCaP cells; 0.03200 μM
  Anti-proliferative toxicity data in VCaP cells: 94.5%
VCaP cells; 0.16000 μM
  Anti-proliferative toxicity data in VCaP cells: 94.8%
VCaP cells
  pIC50: ≥ 10.00
22Rv1 cells; 0.00001 μM
  Anti-proliferative toxicity data in 22Rv1 cells: 23.5%
22Rv1 cells; 0.00006 μM
  Anti-proliferative toxicity data in 22Rv1 cells: 62.4%
22Rv1 cells; 0.00032 μM
  Anti-proliferative toxicity data in 22Rv1 cells: 76.5%
22Rv1 cells; 0.00160 μM
  Anti-proliferative toxicity data in 22Rv1 cells: 87.8%
22Rv1 cells; 0.00800 μM
  Anti-proliferative toxicity data in 22Rv1 cells: 86.5%
22Rv1 cells; 0.04000 μM
  Anti-proliferative toxicity data in 22Rv1 cells: 88.0%
22Rv1 cells; 0.20000 μM
  Anti-proliferative toxicity data in 22Rv1 cells: 86.9%
22Rv1 cells; 1.00000 μM
  Anti-proliferative toxicity data in 22Rv1 cells: 84.5%
22Rv1 cells
  pIC50: 8.00 to 10.00
PC-3 cells
  pIC50: 8.00 to 10.00
